Source: paper PMC6409085, “Three odorant-binding proteins are involved in the behavioral response of Sogatella furcifera to rice plant volatiles” (PeerJ, 2019)
Values joined by “and” are separate entries in the source; they are usually repeats but may differ in a detail not shown here. Identical values can stand only once. Like-named read-outs stand apart in the source and are kept apart here.

Columns and labels:
Test in all cases: biochemical
Type in all cases: binding
SfurOBP3 = SfurOBP3 (Sogatella furcifera, UniProt V5T818); conditions: for Fluorescence competitive binding assay, fluorescence intensity: OBP3, three replicate columns
Sequence of SfurOBP3 (V5T818 entry or part of it): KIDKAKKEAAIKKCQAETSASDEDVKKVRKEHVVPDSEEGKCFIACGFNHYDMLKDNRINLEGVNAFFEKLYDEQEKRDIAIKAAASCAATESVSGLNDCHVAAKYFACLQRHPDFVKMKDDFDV
Protocol: (§1) Thirty-six rice odorants ([He et al., 2014]; [Wang et al., 2017]) and 1-N-phenyl-naphthylamine (1-NPN) were purchased from Sigma-Aldrich (St Louis, MO, USA). These odorants and 1-NPN were dissolved in high-performance liquid chromatography (HPLC) purify grade methanol for 1.0 mM as work solution.
(§2) Fluorescence competitive binding assays were performed on Tecan Spark 10M (Tecan Group Ltd., Männedorf, Switzerland) with the F96 Black ELIAS Plate (Sangon) ([Khuhro et al., 2017]; [Liu et al., 2017]). The solutions were excited at 337 nm and emission spectra were recorded between 390 and 490 nm. First, to test the binding constants of 1-NPN to the SfurOBPs, a 2.0 µM solution of protein in 50 mM Tris-HCl (pH = 7.4) was titrated with 1 mM 1-NPN to achieve virous concentrations. Next, the competitive binding of each odorant was measured using the 1-NPN as fluorescent reporter and odorant as competitor. The concentrations of protein and 1-NPN were both 2.0 µM, the odorant added after protein and 1-NPN added into the well of ELIAS Plate for 2 min. The final concentrations of each competitor were 2, 4, 6, 8, 10, 12, 14, 16, 18 and 20 µM. After 2 min of odorant added, the fluorescence intensity was measured and recorded. The volume of mixed solution in each well was maintained at 250 µL. Each interaction was performed in triplicates.
(§3) GraphPad Prism 7.0 software (GraphPad Software, Inc., La Jolla, CA, USA) was used to calculated and generated the binding constants (K1−NPN) of 1-NPN to SfurOBPs and relative Scatchard plots ([Ban et al., 2003]; [Li et al., 2016]). Dissociation constant (Ki) of each odorant to SfurOBP was computed from the corresponding IC50 value (the half maximal inhibitory concentration), using the following equation: Ki=[IC50]/(1 + [1-NPN]/K1−NPN), where [1-NPN] is the free concentration of 1-NPN and K1−NPN is the dissociation constant of the complex protein/1-NPN.

SfurOBP11 = SfurOBP11 (Sogatella furcifera, UniProt V5T6E3)
Sequence of SfurOBP11 (V5T6E3 entry or part of it): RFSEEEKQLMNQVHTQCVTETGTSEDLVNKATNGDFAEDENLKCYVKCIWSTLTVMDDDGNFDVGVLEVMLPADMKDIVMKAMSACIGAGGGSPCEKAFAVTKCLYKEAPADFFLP
Protocol: as §1, §2, §3

SfurOBP2 = SfurOBP2 (Sogatella furcifera, UniProt V5T759)
Sequence of SfurOBP2 (V5T759 entry or part of it): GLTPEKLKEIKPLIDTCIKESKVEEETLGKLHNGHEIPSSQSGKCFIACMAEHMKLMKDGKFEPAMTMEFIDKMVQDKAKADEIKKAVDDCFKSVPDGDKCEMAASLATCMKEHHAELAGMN
Protocol: as §1, §2, §3

SfurOBP1 = SfurOBP1 (Sogatella furcifera, UniProt V5T8N5); conditions: for Fluorescence competitive binding assay, fluorescence intensity: OBP1, three replicate columns
Sequence of SfurOBP1 (V5T8N5 entry or part of it): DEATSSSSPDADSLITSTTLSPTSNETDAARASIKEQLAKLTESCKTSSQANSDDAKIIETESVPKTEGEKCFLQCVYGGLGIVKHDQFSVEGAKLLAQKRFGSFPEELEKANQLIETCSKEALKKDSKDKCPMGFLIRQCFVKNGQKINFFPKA
Protocol: as §1, §2, §3

[1] = SfurOBP3, protein and 1-NPN both 2.0 µM, competitor 2-20 µM, read-out: IC50
[2] = SfurOBP11, protein and 1-NPN both 2.0 µM, competitor 2-20 µM, read-out: IC50
[3] = SfurOBP2, protein and 1-NPN both 2.0 µM, competitor 2-20 µM, read-out: IC50
[4] = SfurOBP1, protein and 1-NPN both 2.0 µM, competitor 2-20 µM, read-out: IC50

C[C@@H]1CC[C@H]2C(C)(C)[C@H]3C[C@@]12CC[C@@]3(C)O [cedrol]
IC50 (SfurOBP3): > 20 µM
Fluorescence competitive binding assay, fluorescence intensity (SfurOBP3; ligand concentration 2): 55754 and 49842 and 56462
Fluorescence competitive binding assay, fluorescence intensity (SfurOBP3; ligand concentration 4): 68851 and 68657 and 83563
Fluorescence competitive binding assay, fluorescence intensity (SfurOBP3; ligand concentration 6): 77285 and 86181 and 100023
Fluorescence competitive binding assay, fluorescence intensity (SfurOBP3; ligand concentration 8): 86444 and 86480 and 86528
Fluorescence competitive binding assay, fluorescence intensity (SfurOBP3; ligand concentration 10): 98647 and 101699 and 124352
Fluorescence competitive binding assay, fluorescence intensity (SfurOBP3; ligand concentration 12): 107439 and 105795 and 90567
Fluorescence competitive binding assay, fluorescence intensity (SfurOBP3; ligand concentration 14): 124768 and 101594 and 116276
Fluorescence competitive binding assay, fluorescence intensity (SfurOBP3; ligand concentration 16): 81951 and 95706 and 104699
Fluorescence competitive binding assay, fluorescence intensity (SfurOBP3; ligand concentration 18): 130597 and 114825 and 98253
Fluorescence competitive binding assay, fluorescence intensity (SfurOBP3; ligand concentration 20): 111183 and 106493 and 98789
IC50 (SfurOBP11): > 20 µM
Fluorescence intensity, fluorescence competitive binding assay, OBP11 (SfurOBP11; ligand concentration 2, replicate 1): 32664
Fluorescence intensity, fluorescence competitive binding assay, OBP11 (SfurOBP11; ligand concentration 2, replicate 2): 32061
Fluorescence intensity, fluorescence competitive binding assay, OBP11 (SfurOBP11; ligand concentration 2, replicate 3): 32191
Fluorescence intensity, fluorescence competitive binding assay, OBP11 (SfurOBP11; ligand concentration 4, replicate 1): 30812
Fluorescence intensity, fluorescence competitive binding assay, OBP11 (SfurOBP11; ligand concentration 4, replicate 2): 37566
Fluorescence intensity, fluorescence competitive binding assay, OBP11 (SfurOBP11; ligand concentration 4, replicate 3): 35078
Fluorescence intensity, fluorescence competitive binding assay, OBP11 (SfurOBP11; ligand concentration 6, replicate 1): 34551
Fluorescence intensity, fluorescence competitive binding assay, OBP11 (SfurOBP11; ligand concentration 6, replicate 2): 34452
Fluorescence intensity, fluorescence competitive binding assay, OBP11 (SfurOBP11; ligand concentration 6, replicate 3): 36785
Fluorescence intensity, fluorescence competitive binding assay, OBP11 (SfurOBP11; ligand concentration 8, replicate 1): 32906
Fluorescence intensity, fluorescence competitive binding assay, OBP11 (SfurOBP11; ligand concentration 8, replicate 2): 35488
Fluorescence intensity, fluorescence competitive binding assay, OBP11 (SfurOBP11; ligand concentration 8, replicate 3): 34811
Fluorescence intensity, fluorescence competitive binding assay, OBP11 (SfurOBP11; ligand concentration 10, replicate 1): 34631
Fluorescence intensity, fluorescence competitive binding assay, OBP11 (SfurOBP11; ligand concentration 10, replicate 2): 35572
Fluorescence intensity, fluorescence competitive binding assay, OBP11 (SfurOBP11; ligand concentration 10, replicate 3): 36351
Fluorescence intensity, fluorescence competitive binding assay, OBP11 (SfurOBP11; ligand concentration 12, replicate 1): 32777
Fluorescence intensity, fluorescence competitive binding assay, OBP11 (SfurOBP11; ligand concentration 12, replicate 2): 37222
Fluorescence intensity, fluorescence competitive binding assay, OBP11 (SfurOBP11; ligand concentration 12, replicate 3): 35927
Fluorescence intensity, fluorescence competitive binding assay, OBP11 (SfurOBP11; ligand concentration 14, replicate 1): 33134
Fluorescence intensity, fluorescence competitive binding assay, OBP11 (SfurOBP11; ligand concentration 14, replicate 2): 35392
Fluorescence intensity, fluorescence competitive binding assay, OBP11 (SfurOBP11; ligand concentration 14, replicate 3): 35226
Fluorescence intensity, fluorescence competitive binding assay, OBP11 (SfurOBP11; ligand concentration 16, replicate 1): 32933
Fluorescence intensity, fluorescence competitive binding assay, OBP11 (SfurOBP11; ligand concentration 16, replicate 2): 34203
Fluorescence intensity, fluorescence competitive binding assay, OBP11 (SfurOBP11; ligand concentration 16, replicate 3): 33568
Fluorescence intensity, fluorescence competitive binding assay, OBP11 (SfurOBP11; ligand concentration 18, replicate 1): 37284
Fluorescence intensity, fluorescence competitive binding assay, OBP11 (SfurOBP11; ligand concentration 18, replicate 2): 38034
Fluorescence intensity, fluorescence competitive binding assay, OBP11 (SfurOBP11; ligand concentration 18, replicate 3): 36646
Fluorescence intensity, fluorescence competitive binding assay, OBP11 (SfurOBP11; ligand concentration 20, replicate 1): 39273
Fluorescence intensity, fluorescence competitive binding assay, OBP11 (SfurOBP11; ligand concentration 20, replicate 2): 38740
Fluorescence intensity, fluorescence competitive binding assay, OBP11 (SfurOBP11; ligand concentration 20, replicate 3): 33015
IC50 (SfurOBP2): > 20 µM
Fluorescence competitive binding assay, OBP2 (raw fluorescence reading) (SfurOBP2; ligand concentration 2 (unit not given), replicate column 1 of 3): 24497
Fluorescence competitive binding assay, OBP2 (raw fluorescence reading) (SfurOBP2; ligand concentration 2 (unit not given), replicate column 2 of 3): 23498
Fluorescence competitive binding assay, OBP2 (raw fluorescence reading) (SfurOBP2; ligand concentration 2 (unit not given), replicate column 3 of 3): 23591
Fluorescence competitive binding assay, OBP2 (raw fluorescence reading) (SfurOBP2; ligand concentration 4 (unit not given), replicate column 1 of 3): 27085
Fluorescence competitive binding assay, OBP2 (raw fluorescence reading) (SfurOBP2; ligand concentration 4 (unit not given), replicate column 2 of 3): 27496
Fluorescence competitive binding assay, OBP2 (raw fluorescence reading) (SfurOBP2; ligand concentration 4 (unit not given), replicate column 3 of 3): 25040
Fluorescence competitive binding assay, OBP2 (raw fluorescence reading) (SfurOBP2; ligand concentration 6 (unit not given), replicate column 1 of 3): 30107
Fluorescence competitive binding assay, OBP2 (raw fluorescence reading) (SfurOBP2; ligand concentration 6 (unit not given), replicate column 2 of 3): 26969
Fluorescence competitive binding assay, OBP2 (raw fluorescence reading) (SfurOBP2; ligand concentration 6 (unit not given), replicate column 3 of 3): 25579
Fluorescence competitive binding assay, OBP2 (raw fluorescence reading) (SfurOBP2; ligand concentration 8 (unit not given), replicate column 1 of 3): 26802
Fluorescence competitive binding assay, OBP2 (raw fluorescence reading) (SfurOBP2; ligand concentration 8 (unit not given), replicate column 2 of 3): 26446
Fluorescence competitive binding assay, OBP2 (raw fluorescence reading) (SfurOBP2; ligand concentration 8 (unit not given), replicate column 3 of 3): 25979
Fluorescence competitive binding assay, OBP2 (raw fluorescence reading) (SfurOBP2; ligand concentration 10 (unit not given), replicate column 1 of 3): 26972
Fluorescence competitive binding assay, OBP2 (raw fluorescence reading) (SfurOBP2; ligand concentration 10 (unit not given), replicate column 2 of 3): 25158
Fluorescence competitive binding assay, OBP2 (raw fluorescence reading) (SfurOBP2; ligand concentration 10 (unit not given), replicate column 3 of 3): 26522
Fluorescence competitive binding assay, OBP2 (raw fluorescence reading) (SfurOBP2; ligand concentration 12 (unit not given), replicate column 1 of 3): 24638
Fluorescence competitive binding assay, OBP2 (raw fluorescence reading) (SfurOBP2; ligand concentration 12 (unit not given), replicate column 2 of 3): 24959
Fluorescence competitive binding assay, OBP2 (raw fluorescence reading) (SfurOBP2; ligand concentration 12 (unit not given), replicate column 3 of 3): 25011
Fluorescence competitive binding assay, OBP2 (raw fluorescence reading) (SfurOBP2; ligand concentration 14 (unit not given), replicate column 1 of 3): 25754
Fluorescence competitive binding assay, OBP2 (raw fluorescence reading) (SfurOBP2; ligand concentration 14 (unit not given), replicate column 2 of 3): 26325
Fluorescence competitive binding assay, OBP2 (raw fluorescence reading) (SfurOBP2; ligand concentration 14 (unit not given), replicate column 3 of 3): 24806
Fluorescence competitive binding assay, OBP2 (raw fluorescence reading) (SfurOBP2; ligand concentration 16 (unit not given), replicate column 1 of 3): 22837
Fluorescence competitive binding assay, OBP2 (raw fluorescence reading) (SfurOBP2; ligand concentration 16 (unit not given), replicate column 2 of 3): 21773
Fluorescence competitive binding assay, OBP2 (raw fluorescence reading) (SfurOBP2; ligand concentration 16 (unit not given), replicate column 3 of 3): 21108
Fluorescence competitive binding assay, OBP2 (raw fluorescence reading) (SfurOBP2; ligand concentration 18 (unit not given), replicate column 1 of 3): 27379
Fluorescence competitive binding assay, OBP2 (raw fluorescence reading) (SfurOBP2; ligand concentration 18 (unit not given), replicate column 2 of 3): 25169
Fluorescence competitive binding assay, OBP2 (raw fluorescence reading) (SfurOBP2; ligand concentration 18 (unit not given), replicate column 3 of 3): 23516
Fluorescence competitive binding assay, OBP2 (raw fluorescence reading) (SfurOBP2; ligand concentration 20 (unit not given), replicate column 1 of 3): 25091
Fluorescence competitive binding assay, OBP2 (raw fluorescence reading) (SfurOBP2; ligand concentration 20 (unit not given), replicate column 2 of 3): 24420
Fluorescence competitive binding assay, OBP2 (raw fluorescence reading) (SfurOBP2; ligand concentration 20 (unit not given), replicate column 3 of 3): 23245
IC50 (SfurOBP1): > 20 µM
Fluorescence competitive binding assay, fluorescence intensity (SfurOBP1; ligand concentration 2 (μM)): 6995 and 7876 and 8408
Fluorescence competitive binding assay, fluorescence intensity (SfurOBP1; ligand concentration 4 (μM)): 8498 and 11154 and 11504
Fluorescence competitive binding assay, fluorescence intensity (SfurOBP1; ligand concentration 6 (μM)): 10601 and 9220 and 11976
Fluorescence competitive binding assay, fluorescence intensity (SfurOBP1; ligand concentration 8 (μM)): 9019 and 11150 and 9994
Fluorescence competitive binding assay, fluorescence intensity (SfurOBP1; ligand concentration 10 (μM)): 10329 and 10734 and 11532
Fluorescence competitive binding assay, fluorescence intensity (SfurOBP1; ligand concentration 12 (μM)): 12388 and 11952 and 13123
Fluorescence competitive binding assay, fluorescence intensity (SfurOBP1; ligand concentration 14 (μM)): 12489 and 14285 and 14049
Fluorescence competitive binding assay, fluorescence intensity (SfurOBP1; ligand concentration 16 (μM)): 13812 and 12078 and 13153
Fluorescence competitive binding assay, fluorescence intensity (SfurOBP1; ligand concentration 18 (μM)): 15290 and 17034 and 15790
Fluorescence competitive binding assay, fluorescence intensity (SfurOBP1; ligand concentration 20 (μM)): 14831 and 15054 and 15511

CC(C)COC(=O)CCCCC(=O)OCC(C)C [diisobutyl adipate]
IC50 (SfurOBP3; [1]): > 20 µM
IC50 (SfurOBP11; [2]): > 20 µM
IC50 (SfurOBP2; [3]): > 20 µM
IC50 (SfurOBP1; [4]): > 20 µM

CCCCCCCCCCCCCCCC(=O)OC [methyl hexadecanoate]
IC50 (SfurOBP3; [1]): > 20 µM
IC50 (SfurOBP11; [2]): > 20 µM
IC50 (SfurOBP2; [3]): > 20 µM
IC50 (SfurOBP1; [4]): > 20 µM
